Test results published in patent US10849918B2, “Composition for optic nerve protection” (TOHOKU TECHNO ARCH CO., LTD., priority 2015, dated 2020).

Test system: retinal ganglion cells
Experiment: Test 2: optic nerve protection in optic nerve crush injury murine model, oral administration
Format: in vivo, mice
Conditions: summary statement; oral or intraocular administration, optic nerve crush injury model and NMDA model
Description: The nerve protection effect of each ingredient was verified by using a rodent glaucoma pathological model of an optic nerve crush injury murine model.
Test animal: male C57BL/6 strain mice, 9-12 weeks old, each approximately 25 g
The experiment was conducted according to the following method. The number of samples in each group was 8.
(2) To the mice in the experimental groups, each ingredient prepared as shown in Table 2 was orally administered at a dosage as shown in Table 2 once a day from one week before the optic nerve crush treatment; to the mice in the control groups, 100 μL of distilled water or phosphate-buffered saline (containing no Ca or Mg, pH: 7.4, hereinafter abbreviated as “PBS(−)”) was administered likewise.
(3) The optic nerve crush treatment on the mice was performed under anesthesia by administering ketamine (100 mg/kg) and xylazine (5 mg/kg). The optic nerve crush treatment was performed on only single eyes, and the fellow eyes were untreated. After the optic nerve crush treatment was completed, an antibacterial ophthalmic ointment was instilled to the eyes of the mice. […]
(7) The number of cells labeled with Fluoro-Gold was counted to obtain an average number at the 12 sites. […]

COc1ccc([C@@H]2CC(=O)c3c(O)cc(O[C@@H]4O[C@H](CO[C@@H]5O[C@@H](C)[C@H](O)[C@@H](O)[C@H]5O)[C@@H](O)[C@H](O)[C@H]4O)cc3O2)cc1O [hesperidin]
protection effect on the death of retinal ganglion cells: excellent protection effect on the death of retinal ganglion cells
